Data published in patent US9408832B2, “LIM kinasemodulating agents for neurofibromatoses therapy and methods for screening for same” (University of Central Florida Research Foundation, Inc., priority 2012, dated 2016).
Where “and” joins values, the source holds several entries; their conditions need not be identical. Identical values can stand only once. Entries after “also recorded” stand apart in the source; their conditions may differ.

Experiments:
[1] = tested on: caspase 3/7 activity; assay: Caspase-3/7 activity (Apo-ONE Homogeneous Assay) in merlin-null Schwann cells; type: cell-based, mouse; conditions: for mechanism of apoptotic death in context of the Apo-One assay result: 384-well format, 8 hours
Procedure: (§1) FIGS. 10 A-C. Phenotypic Apoptosis Assays. (A). Merlin-null Schwann cells in a 384-well format were incubated with the indicated compounds for 8 hours. Caspase-3/7 activity was measure with Apo-ONE Homogeneous Assay (Promega). n=32 wells. (B). Merlin-null Schwann cells in a 6-well format were treated with compounds (10 uM) for 24 hours. Membrane asymmetry was detected with Violet Ratiometric assay and read on a BD Cantos II flow cytometer. (C). Population distribution for B is shown.
In yet another aspect, compounds may be identified which induce programmed cell death or inhibit proliferation of Merlin-null Schwann cells. Merlin-pathway assays may be conducted to identify the subset of compounds that modulate the activity of known merlin pathways. The effector caspase cascade is activated in many extrinsic and intrinsic cell death pathways^29. The CPCCG has an established HTS assay that measures caspase-3 activity based on the cleavage and enzymatic degradation of a fluorescent substrate containing the amino acid motif DEVD (DEVD-7-amino-4-trifluoromethyl coumarin, DEVD-AFC). Briefly, Merlin-null Schwann cells may be dispensed and test compounds added, and incubated as described for the primary screening assay. The effect of compounds on caspase-3 activity can be measured by first lysing the cells and centrifuging to pellet the debris. Next, 20 μl of 2× reaction buffer may be added, followed by 1 μL, DTT (0.01M final). Finally, 1uL of DEVD-AFC may be added and the plate may be incubated at 37° C. for 1.5 h. Enzyme activity may be measured on an Envision plate reader at Ex400 nm/Em505 nm. The enzyme activity may be calculated from a standard curve generated using recombinant caspase-3 enzyme (R&D System, Inc.) and expressed as fold-increase in activity. […] Transfer of phosphatidylserine and phosphatidylethanolamine from the inner to the outer leaflet of the plasma membrane changes the membrane potential that is detected by F2N12S. […]

[2] = tested on: mouse merlin-null Schwann cells; assay: BrdU/7-AAD flow cytometry assay; type: cell-based
Procedure: (§2) FIGS. 11A-D. Phenotypic Proliferation Assays. (A) Merlin-null Schwann cells (384-well format) were treated with the indicated compounds and concentrations for 24 hours and labeled with EdU during the last 9 hours. Incorporation of EdU into S-phase cells was read on a Biotek H1 Hybrid reader. (B) The plate was also imaged with a Trophos high resolution fluorescence Plate Runner. (C). […] The cell population profile is shown and was analyzed using the ModFit program. (D). Merlin-null Schwann cells were grown as in C but were labeled with BrdU during the final 3 hours of treatment then stained with 7AAD. The distribution of BrdU- and 7AAD-labelled cells is shown and was analyzed with Diva program. The BD Cantos II flow cytometer was used above.
In yet another aspect, identification of compounds that affect proliferation of Merlin-null mouse Schwann cells can be performed by conducting a Click-iT EdU Microplate Assay (Life Technologies) in the 384 well-plate format and then follow-up with BrdU/7AAD and propidium iodide flow cytometer assays. […] The EdU-Click-iT assay uses a 2-step procedure to identify cells in the S-phase of the cell cycle. EdU (5-ethynyl-2′-deoxyuridine) is a DNA analog that has been modified with an alkyne and is incorporated by cells in S phase. It reacts with Alexa-Fluor-Oregon green azide in the presence of a copper solution to form a covalent bond. Fluorescence emission is measured on a Hybrid HT plate reader (FIG. 11A) as well as on a Trophos Plate RUNNER HD that captures images of the wells (FIG. 11B). This allows confirmatory cell counts to be obtained. Cell cycle profiles were collected using propidium iodide (PI) labeling of log-phase growing Merlin-null Schwann cells (FIG. 11C). The results were confirmed by acquiring the ratio of BrdU-positive to total 7AAD-labelled cells in an independent assay (FIG. 11D).

[3] = tested on: cofilin phosphorylation (substrate for LIMK); assay: Western blot of cofilin phosphorylation in normal rat Schwann cells; type: cell-based; conditions: 6 hours
[4] = tested on: mouse merlin-null Schwann cells; assay: Violet Ratiometric membrane asymmetry / dead cell apoptosis flow cytometry assay; type: cell-based; conditions: 24 hours
Procedure: as §1
In yet another aspect, compounds may be identified which induce programmed cell death or inhibit proliferation of Merlin-null Schwann cells. Merlin-pathway assays may be conducted to identify the subset of compounds that modulate the activity of known merlin pathways. The effector caspase cascade is activated in many extrinsic and intrinsic cell death pathways^29. […] The effect of compounds on caspase-3 activity can be measured by first lysing the cells and centrifuging to pellet the debris. […] Enzyme activity may be measured on an Envision plate reader at Ex400 nm/Em505 nm. The enzyme activity may be calculated from a standard curve generated using recombinant caspase-3 enzyme (R&D System, Inc.) and expressed as fold-increase in activity. […] Transfer of phosphatidylserine and phosphatidylethanolamine from the inner to the outer leaflet of the plasma membrane changes the membrane potential that is detected by F2N12S. […]

[5] = tested on: mouse merlin-null Schwann cells; assay: Crystal Violet cell number assay; type: cell-based
[6] = tested on: mouse merlin-null Schwann cells; assay: Propidium iodide flow cytometry cell cycle assay; type: cell-based
Procedure: as §2
In yet another aspect, identification of compounds that affect proliferation of Merlin-null mouse Schwann cells can be performed by conducting a Click-iT EdU Microplate Assay (Life Technologies) in the 384 well-plate format and then follow-up with BrdU/7AAD and propidium iodide flow cytometer assays. […] The EdU-Click-iT assay uses a 2-step procedure to identify cells in the S-phase of the cell cycle. […] Fluorescence emission is measured on a Hybrid HT plate reader (FIG. 11A) as well as on a Trophos Plate RUNNER HD that captures images of the wells (FIG. 11B). […]

[7] = tested on: cofilin phosphorylation; assay: Cofilin phosphorylation in mouse Schwann cells (summary statement); type: cell-based
[8] = tested on: mouse merlin-null Schwann cells; assay: MultiTox-Fluor cell viability assay with merlin-null Schwann cells (NF2-MTC)
Procedure: To ascertain whether this cell line was amenable to a HTS platform, the present inventors tested cell adherence and growth on several types of 384-well plates. Wells were seeded at varying cell densities (2,500-20,000 cells/well) and the ratio of live:dead cells was measured 24 hours later using the MultiTox-Fluor Multiplex Cytotoxicity Assay (Promega). This assay uses fluorescent probes to measure protease activities from live and dying cells. […] Therefore, the DMSO concentration for screening will be maintained at 0.5%.

[9] = 5 μM, 24 hr, BrdU for the last 3 hr

N#C/C(=C\c1ccc(-c2cc(Cl)ccc2Cl)o1)C(=O)Nc1cccc2ncccc12 [AGK2]
mechanism of apoptotic death in context of the Apo-One assay result [1]: caspase3/7-independent
anti-proliferative effects on the cells ([2]; 24 hours of drug treatment, S-phase labelling for the final 3 hours): did not reveal clear anti-proliferative effects

CC(C)C(=O)Nc1ncc(-c2cc(C(F)F)nn2-c2c(Cl)cccc2Cl)s1 [BMS-5]
IC50 ([3]; Western blot, read-out: amount needed to reduce cofilin phosphorylation by 50% of the untreated control): 200 nM
cofilin phosphorylation (dose response, in words) ([3]; increasing BMS-5): reduces the amount of cofilin phosphorylation; also recorded: cofilin phosphorylation decreases
mechanism of apoptotic death in context of the Apo-One assay result [1]: caspase3/7-independent
difference in caspase 3/7 activity versus untreated or DMSO controls ([1]; 8 hours incubation, increasing doses): no significant difference
number of cells with plasma membrane asymmetry ([4]; 2 μM): does not significantly increase
change in the number of cells after 72 hours ([5]; 2 μM): no change
cell number compared to untreated or DMSO controls ([5]; 1 and 2 μM, 72 hours): decrease in the cell number
increase of cells in G2/M phase ([6]; 5 μM, 17 hr, Propidium Iodine staining): more than 100%
cell cycle profile (PI labeling and BrdU profiles, in words) ([6]; 5 uM, 22 hours): accumulate in G2/M
cells in G0/G1 and S phase [2, 9]: massive depletion
number of cells in G2/M [2, 9]: moderate increase; also recorded: moderately increase
cofilin phosphorylation in mouse Schwann cells (in words) [7]: reduced cofilin phosphorylation
MTC number / proliferation with increasing concentration (in words) ([8]; 24 hours, various inhibitor concentrations): inhibited proliferation; also recorded: dose-respondent inhibition
MTC viability compared to DMSO control (in words) ([8]; BMS-5 5 μM, 24 hours): reduced MTC viability
EC50 ([8]; read-out: EC50: concentration that reduces the number of merlin-null Schwann cells by 50% of control, 24 hours, 96-well format, 32 replicates/concentration): 1960 nM and ~2000 nM

COc1ccc2c(c[n+](C)c3c4cc5c(cc4ccc23)OCO5)c1OC.[Cl-] [CHE, cheleryithrine chloride]
apoptotic death (Q1+Q3), share of Merlin-null Schwann cells ([4]; 10 uM, 6-well format, flow cytometer): 93%

FC(F)(F)c1ccc(/C=C/c2nc(COc3ccc(CCCCn4ccnn4)cc3)co2)cc1 [TAK 165]
MTC viability compared to DMSO control (in words) ([8]; TAK 165 50 nM, positive control): effective in reducing MTC viability

CO[C@H]1C[C@@H]2CC[C@@H](C)[C@@](O)(O2)C(=O)C(=O)N2CCCC[C@H]2C(=O)O[C@H]([C@H](C)C[C@@H]2CC[C@@H](O)[C@H](OC)C2)CC(=O)[C@H](C)/C=C(\C)[C@@H](O)[C@@H](OC)C(=O)[C@H](C)C[C@H](C)/C=C/C=C/C=C/1C [rapamycin, Rapamycin]
viability of cells, % of the DMSO control ([8]; 50 μM rapamycin, 384-well plate, 5,000 cells/well): 20+/−1.4%
